Assay results taken from patent USRE50230E1, “Method of treatment of hypoxia inducible factor (HIF)-related conditions” (GRIFOLS WORLDWIDE OPERATIONS LIMITED, priority 2014, dated 2024).

Tests used:
NCI-H1650 = test: Cell Titer Glow viability assay, NCI-H1650; format: cell-based, human; settings: 4 mg/mL, 72 hours
Protocol: (§1) Given the anticipated safety profile of a human plasma protein, toxicity of transferrins (majority Apo, majority Holo and pd-transferrin) in NCI-H1650 and primary human hepatocyte cells was assessed. The human lung cell line, NCI-H1650, and primary human hepatocytes were treated for 72 hours with 4 mg/mL of majority ApoTf, majority HoloTf, or pd-transferrin. After 72 hours, cells were subjected to a Cell Titer Glow viability assay. Control cells, untreated cells, were set to a value of 100% viable. The average viability and standard deviations are shown in FIGS. 14A and 14B for each treatment condition.

HIF1 alpha protein [1] = test: HIF1 alpha protein levels by ELISA in RPTEC cells; format: cell-based, human; settings: 4 mg/mL, 6 hrs, normal oxygen
Text: (§2) It is well-known in the art that many small molecules used for the treatment of conditions related or provoked by hypoxia are toxic and have numerous side effects, e.g. DFO. One of the most apparent side effects of said small molecules is kidney toxicity. Therefore, in order to assess whether transferrin and/or mixtures increase HIF1 alpha levels in primary kidney cells; human primary kidney cells, both primary human renal proximal tubule epithelial (RPTEC) or cortical epithelial cells (HRCE) were obtained. Primary human renal proximal tubule epithelial (RPTEC) or primary cortical epithelial (HRCE) cells cultured in serum free media were treated with 4 mg/mL majority Apo-transferrin, majority Holo-transferrin or various mixtures of each for 6 hrs under normal oxygen levels. After 6 hrs intracellular proteins were harvested and tested for HIF1 alpha protein levels by ELISA. FIGS. 10A and 10B reveal that HIF1 alpha levels are induced with transferrin composed of mixtures of Apo-transferrin and Holo-transferrin in RPTEC and HRCE, respectively.

SH-SY5Y cells [2] = test: Protection from oligomerized Abeta 1-42 toxicity, ApoGlo caspase 3/7 activation assay; format: cell-based, human; settings: for inherent toxicity: 4 mg/mL; for protection from Abeta induced toxicity (caspase 3/7 induction): 4 mg/mL for 24 hrs, then oligomerized Abeta1-42 for 72 hours
Text: Upregulation of the HIF pathway is known to play a protective role in a number of neurodegenerative diseases, including pathologies that result in destruction of nerve cells and neurons. Such neurodegenerative diseases include Alzheimer's disease, Parkinson's disease, Huntington's disease, and Amylotrophic Lateral Sclerosis. Since treatment of SH-SY5Y upregulates HIF, treatment of cells with Apo- or Holo-transferrin should provide a protective effect on cells subjected to substances known to induce neurodegeneration. FIG. 7 highlights data assessing whether majorities of Apo- and Holo-transferrin could protect SH-SY5Y cells from the toxic effects of the known neurodegenerative toxin oligomerized Abeta 1-42 peptide (FIG. 7). SH-SY5Y neuronal cells cultured in growth media were treated with 4 mg/mL Apo-transferrin or Holo-transferrin for 24 hrs under normal oxygen levels. After 24 hrs, cells were treated with oligomerized Abeta1-42 peptide for an additional 72 hours. Following treatment with oligomerized Abeta1-42, cells were subjected to a ApoGlo caspase 3/7 activation assay. Control cells, untreated cells, were set to a normalized value of 1. The average caspase induction, relative to control cells, and standard deviations are shown for each treatment condition.

SH-SY5Y cells [3] = test: Cell Titer Glow viability assay, SH-SY5Y cells; format: cell-based, human; settings: 4 mg/mL, 72 hours
Protocol: Since it has been reported that HoloTf is toxic to cells in vivo and in vitro, toxicity of various compositions containing majority ApoTf, majority HoloTf or mixtures of ApoTf+HoloTf was tested in SH-SY5Y cells. SH-SY5Y cells were treated with the indicated concentrations of 4 mg/mL Tf (as indicated in FIG. 5A), M30 or DFO for 72 hours. After 72 hours, cells were subjected to a Cell Titer Glow viability assay. Control cells, untreated cells, were set to a value of 100% viable. The average viability and standard deviations are shown for each treatment condition.

HIF1 alpha protein [4] = test: HIF1 alpha protein levels by ELISA in HRCE cells; format: cell-based, human; settings: 4 mg/mL, 6 hrs, normal oxygen
Text: as §2

[5] = Modified Bederson and General Behavioral scores in rats; format: in vivo, rat; settings: rats intravenously treated
Protocol: In vivo neurological function was assessed by a modified Bederson score (Bederson et al., 1986b; Crumrine et al., 2011) using the following definitions:
Score 0: No apparent neurological deficits;
Score 1: Body torsion present;
Score 2: Body torsion with right side weakness;
Score 3: Body torsion, right side weakness with circling behavior; and
Score 4: Seizure Activity.
General behavioral scores of rats were developed by the CALS personnel for the purpose of monitoring recovery of animals following surgical procedures (standard CALS post-operative care). A numerical value was assigned to the predetermined behavioral observations.
Score 0: Behavior consistent with a normal naïve rat (i.e. no ipsilateral deficit);
Score 1: Bright/active/responsive; the rat spontaneously moves and explores his cage, responds to external stimuli, explores the top of the cage;
Score 2: Quiet/alert/responsive; reserved behavior but will respond to external stimulus, tends not to rear or explore the top of the cage;
Score 3: Depressed behavior: tends not to move unless prodded, quickly returns to a somnolent state, little to no interest in external stimuli;
Score 4: Unresponsive: remains in a prostrate position even when prodded; and Score 5: Seizure activity requiring euthanasia.

HIF1alpha protein = HIF1alpha protein levels by ELISA in SH-SY5Y cells; format: cell-based, human
Protocol: Human neuroblastoma SH-SY5Y cell line cells, cultured in serum free media were treated with plasma derived ApoTf and HoloTf (in both cases at a concentration of 1 mg/mL and 4 mg/mL) for 6 hours under normoxia (21% oxygen) and hypoxia conditions (1% oxygen). […] After 6 hrs intracellular proteins were harvested and tested for HIF1alpha protein levels by ELISA.
Experiment performed in example 1 was repeated but performing treatments for 24 hours and only under normoxic conditions. After 24 hrs intracellular proteins were harvested and tested for HIF1 alpha protein levels by ELISA.
After 6 hrs, intracellular proteins were harvested and tested for HIF1 alpha protein levels by ELISA.
To determine whether Apotransferrin increases the potency of the iron chelator, DFO, and the phd2 inhibitor IOX2; SH-SY5Y neuronal cells cultured in serum free media were treated with 4 mg/mL of the indicated proteins in the presence or absence of small molecule drug under normal oxygen levels. The data shown in FIG. 8A relates to treatment of cells with a combination of DFO or IOX2, at the indicated concentrations, plus 4 mg/mL protein. CoCl2 was used as an experimental positive control. The data shown in FIG. 8B relates to treatment of cells with a combination of 10 uM M30 plus/minus 4 mg/mL protein. The data shown in FIG. 8C relates to treatment of cells with a combination of 200 uM DFO plus/minus 4 mg/mL protein. After 6 hrs intracellular proteins were harvested and tested for HIF1 alpha protein levels by ELISA. Data are shown in pg/mL with standard deviation.

Glut1 = Glut1 mRNA expression by qPCR in SH-SY5Y cells; format: cell-based, human
Protocol: (§3) The stabilization of, and increase in, HIF-1α protein typically leads to an up-regulation of HIF-related genes (increase in the transcription of genes targeted by HIF), i.e. genes that have HIF binding sites in their transcriptional regulatory elements. Two well characterized genes that are activated by HIF-1α protein are Glut1 receptor and VEGF. Therefore, in order to analyze mRNA expression changes in each of these HIF target genes SH-SY5Y cell line cells were cultured and treated with majority ApoTf or majority HoloTf at a concentration of 1 mg/mL and 4 mg/mL under normoxic (21% oxygen) or hypoxic (1% oxygen) conditions for 6 hours. As a negative controls, cells were treated with HSA (1 mg/mL or 4 mg/mL) or were left untreated. After 6 hrs, intracellular mRNA was harvested and tested for Glut1 and VEGF expression levels by qPCR. Expression results were calculated relative to the expression of the corresponding transcript seen in untreated cells. FIGS. 4A and 4B show the expression results obtained for Glut1 receptor and VEGF, respectively. Values in the figures are shown as Relative Gene Expression, with the target gene (Glut1 or VEGF) normalized for housekeeper (beta-actin) expression.
(§4) In addition, mRNA expression levels of Glut1 and VEGF in response to majority Apotransferrin and DFO or IOX2 combinations were determined. […] Where indicated, either 200 uM DFO or 1 uM IOX2 were co-treated with the HSA and majority Apotransferrin. After 6 hr treatments, intracellular mRNA was harvested and tested for Glut1 and VEGF expression levels by qPCR. Values are shown as Relative Gene Expression, with the target gene (Glut1 or VEGF) normalized for housekeeper (beta-actin) expression. Standard deviations are shown.

[6] = tested on: primary human hepatocytes; test: Cell Titer Glow viability assay, primary human hepatocytes; format: cell-based; settings: 4 mg/mL, 72 hours
Protocol: as §1

VEGF = VEGF mRNA expression by qPCR in SH-SY5Y cells; format: cell-based, human
Protocol: as §3, §4

[7] = tested on: cortical epithelial (HRCE) cells; test: Cell Titer Glow viability assay, HRCE cells; format: cell-based, human; settings: 48 hours
Protocol: (§5) Considering the anticipated safety profile of a human plasma protein, toxicity of DFO and transferrins (majority Apo, majority Holo and mixtures) was assessed in primary human kidney cells. The renal proximal tubule epithelial (RPTEC) or cortical epithelial (HRCE) cells were treated with the indicated concentrations of majority ApoTf or DFO for 48 hours (FIG. 11A); and RPTEC or HRCE cells were treated for 72 hrs with 4 mg/mL of majority ApoTf, majority HoloTf, mixtures of transferrin (FIG. 11B). After 48 or 72 hours, cells were subjected to a Cell Titer Glow viability assay. Control cells, untreated cells, were set to a value of 100% viable. The average viability and standard deviations are shown for each treatment condition.

[8] = tested on: renal proximal tubule epithelial (RPTEC) cells; test: Cell Titer Glow viability assay, RPTEC cells; format: cell-based, human; settings: 48 hours
Protocol: as §5

[9] = MCAo (Middle Cerebral Artery occlusion) rat model of brain stroke, infarct volume; format: in vivo; settings: 385 mg/kg, IV, transient MCAo rat
[10] = 1 mg/mL, 6 hours, hypoxia (1% oxygen), SH-SY5Y
[11] = 1 mg/mL, 6 hours, normoxia (21% oxygen), SH-SY5Y
[12] = 1 mg/mL, 24 hours, normoxic, SH-SY5Y
[13] = 4 mg/mL, 6 hours, hypoxia (1% oxygen), SH-SY5Y
[14] = 4 mg/mL, 6 hours, normoxia (21% oxygen), SH-SY5Y
[15] = 4 mg/mL, 24 hours, normoxic, SH-SY5Y
[16] = 6 hours, normoxic, SH-SY5Y (FIG. 3)
[17] = normoxic (21% oxygen), 6 hours, 1 mg/mL and 4 mg/mL
[18] = 4 mg/mL, co-treated with 200 uM DFO or 1 uM IOX2, 6 hr, normal oxygen
[19] = hypoxic (1% oxygen), 6 hours, 1 mg/mL and 4 mg/mL

With “majority HoloTf: plasma derived transferrin composition, majority diferric holo-transferrin (30% ApoTf, 70% HoloTf)” the “toxicity (cell viability)” value (NCI-H1650) was “no toxicity”, the HIF1 alpha levels (HIF1 alpha protein [1]) was “Induce” and the inherent toxicity (SH-SY5Y cells [2]) was “lack of inherent toxicity”. For the same compound, the “protection from Abeta induced toxicity (caspase 3/7 induction)” value (SH-SY5Y cells [2]) was “protect SH-SY5Y cells from Abeta induced toxicity”, the “toxicity (cell viability)” value (SH-SY5Y cells [3]) was “no toxicity or detrimental effects” and the HIF1 alpha levels (HIF1 alpha protein [4]) was “Induce”. For the same compound, the “modified Bederson and General Behavioral scores” value [5] was “no detrimental effects”, the “HIF-1α cellular protein levels” value (HIF1alpha protein; [10]) was “significant increase” and the “HIF-1α cellular protein levels” value (HIF1alpha protein; [11]) was “significant increase”. For the same compound, the “HIF-1α cellular protein levels” value (HIF1alpha protein; [12]) was “tendency towards an increase”, the “HIF-1α cellular protein levels” value (HIF1alpha protein; [13]) was “tendency towards an increase” and the “HIF-1α cellular protein levels” value (HIF1alpha protein; [14]) was “significant increase”. For the same compound, the “HIF-1α cellular protein levels” value (HIF1alpha protein; [15]) was “significant increase”, the “HIF-1α cellular protein levels” value (HIF1alpha protein; [16]) was “increase” and the “Glut1 mRNA expression” value (Glut1; [17]) was “increased expression”. For the same compound, the “toxicity (cell viability)” value [6] was “no toxicity” and the “VEGF mRNA expression” value (VEGF; [17]) was “increased expression of only Glut1”.

For CC(=O)N(O)CCCCCNC(=O)CCC(=O)N(O)CCCCCNC(=O)CCC(=O)N(O)CCCCCN [DFO, deferoxamine, reference compound], the “toxicity (cell viability)” value [7] was “significant toxicity” and the “toxicity (cell viability)” value [8] was “significant toxicity”.

In the case of “majority ApoTf: plasma derived transferrin composition, majority iron-free apo-transferrin (98% ApoTf, 2% HoloTf)”, the “toxicity (cell viability)” value (NCI-H1650) is reported as “no toxicity”, the HIF1 alpha levels (HIF1 alpha protein [1]) is reported as “Induce” and the inherent toxicity (SH-SY5Y cells [2]) is reported as “lack of inherent toxicity”. For the same compound, the “protection from Abeta induced toxicity (caspase 3/7 induction)” value (SH-SY5Y cells [2]) was “protect SH-SY5Y cells from Abeta induced toxicity”, the “toxicity (cell viability)” value (SH-SY5Y cells [3]) was “No toxic effects” and the HIF1 alpha levels (HIF1 alpha protein [4]) was “Induce”. The “toxicity (cell viability)” value [7] was “none of the transferrin molecules showed any detrimental effects”, the “modified Bederson and General Behavioral scores” value [5] was “neither compositions of majority ApoTf nor majority HoloTf showed significant differences” and the “toxicity (cell viability)” value [8] was “none of the transferrin molecules showed any detrimental effects”. For the same compound, the “HIF-1α cellular protein levels” value (HIF1alpha protein; [10]) was “significant increase”, the “HIF-1α cellular protein levels” value (HIF1alpha protein; [11]) was “significant increase” and the “HIF-1α cellular protein levels” value (HIF1alpha protein; [12]) was “increased”. The “effect on HIF1 alpha protein levels in combination with M30” value (HIF1alpha protein; 4 mg/mL protein plus 10 uM M30, 6 hrs, normal oxygen, SH-SY5Y) was “synergistic effects”, the “effect on HIF1 alpha protein levels in combination with DFO” value (HIF1alpha protein; 4 mg/mL protein plus 200 uM DFO, 6 hrs, normal oxygen, SH-SY5Y) was “synergistic effects” and the “HIF-1α cellular protein levels” value (HIF1alpha protein; [13]) was “significant increase”. For the same compound, the “HIF-1α cellular protein levels” value (HIF1alpha protein; [14]) was “significant increase”, the “HIF-1α cellular protein levels” value (HIF1alpha protein; [15]) was “increased” and the “HIF-1α cellular protein levels” value (HIF1alpha protein; [16]) was “increase”. For the same compound, the “Glut1 mRNA levels in combination with small molecule activators of the HIF pathway” value (Glut1; [18]) was “increase synergistically and additively”, the “Glut1 mRNA expression relative to HSA controls” value (Glut1; [19]) was “significantly increased” and the “toxicity (cell viability)” value [6] was “no toxicity”. The “volume of the infarcted area vs saline control” value [9] was “significant decrease”, the “VEGF mRNA levels in combination with small molecule activators of the HIF pathway” value (VEGF; [18]) was “increase synergistically and additively” and the “VEGF mRNA expression relative to HSA controls” value (VEGF; [19]) was “significantly increased”.
